Experiments:
PDE2A (NM002599) = molecular target: T1, PDE2A (NM002599) (Homo sapiens, UniProt O00408); assay: Inhibition of recombinant PDE2A (expressed in baculovirus/SF21-cells); type: biochemical; details: recombinant PDE2A, 0.5 μM [3H]-cAMP, 1000 nM cGMP, 37° C., 30 minutes, SPA; read-out: PDE2A IC50
T1 construct: made in house; host or cells: baculovirus / SF21 insect cells
Method in brief: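 Membrane fraction from SF21 cells, assayed in 50 mM Tris-HCl/5 mM MgCl2 (pH 7.4) with 0.5 μM [3H]-cAMP plus 1000 nM cGMP as stimulator; non-specific activity was measured without cGMP. Reaction ran 30 min at 37° C, was stopped with SPA beads and read by scintillation counting. IC50 came from a Hill-plot 2-parameter model.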

PDE10A1 (AB 020593) = molecular target: T2, PDE10A1 (AB 020593) (Homo sapiens, UniProt Q9Y233); assay: Inhibition of recombinant PDE10A (baculovirus/SF21 system); type: biochemical; details: recombinant cytosolic PDE10A, 0.1 μM [3H]-cAMP, 37° C., 30 minutes, SPA; read-out: PDE10A IC50
T2 construct: made in house; host or cells: baculovirus / SF21 insect cells (gene synthesized by Entelechon GmbH)
Method in brief: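 Cytosolic PDE10A1 expressed in SF21 cells via baculovirus, incubated with 0.1 μM [3H]-cAMP in 50 mM Tris-HCl/5 mM MgCl2, pH 7.4, 30 min at 37 °C. SPA-bead scintillation read-out, with enzyme-free wells as background. IC50 from Hill plot, 2-parameter model.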

T1 sequence (O00408 whole entry): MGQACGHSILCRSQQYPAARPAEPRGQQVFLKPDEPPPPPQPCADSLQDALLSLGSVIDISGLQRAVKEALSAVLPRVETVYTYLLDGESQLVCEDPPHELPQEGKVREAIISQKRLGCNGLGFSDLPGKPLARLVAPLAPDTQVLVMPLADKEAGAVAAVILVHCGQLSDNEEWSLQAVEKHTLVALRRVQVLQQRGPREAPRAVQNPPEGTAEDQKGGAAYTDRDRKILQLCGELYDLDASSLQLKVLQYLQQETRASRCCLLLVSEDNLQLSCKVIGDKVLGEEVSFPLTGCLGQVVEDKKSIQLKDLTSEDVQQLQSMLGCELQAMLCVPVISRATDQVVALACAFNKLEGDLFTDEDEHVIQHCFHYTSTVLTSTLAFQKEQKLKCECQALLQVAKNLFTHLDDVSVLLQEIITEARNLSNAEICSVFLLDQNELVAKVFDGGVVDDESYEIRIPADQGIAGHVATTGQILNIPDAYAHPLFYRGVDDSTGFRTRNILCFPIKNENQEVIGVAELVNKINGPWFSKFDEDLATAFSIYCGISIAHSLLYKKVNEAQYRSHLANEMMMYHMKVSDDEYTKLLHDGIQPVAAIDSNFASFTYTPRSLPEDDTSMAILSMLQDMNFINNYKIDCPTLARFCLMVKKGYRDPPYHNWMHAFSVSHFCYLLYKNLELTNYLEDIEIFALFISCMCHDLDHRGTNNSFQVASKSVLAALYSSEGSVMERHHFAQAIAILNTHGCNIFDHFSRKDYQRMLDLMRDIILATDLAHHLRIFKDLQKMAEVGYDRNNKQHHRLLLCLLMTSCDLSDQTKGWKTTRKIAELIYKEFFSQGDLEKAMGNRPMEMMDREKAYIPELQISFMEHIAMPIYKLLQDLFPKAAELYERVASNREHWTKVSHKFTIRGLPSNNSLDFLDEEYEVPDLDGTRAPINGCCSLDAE
T2 sequence (Q9Y233 other isoform, or with tags, fused parts or gaps): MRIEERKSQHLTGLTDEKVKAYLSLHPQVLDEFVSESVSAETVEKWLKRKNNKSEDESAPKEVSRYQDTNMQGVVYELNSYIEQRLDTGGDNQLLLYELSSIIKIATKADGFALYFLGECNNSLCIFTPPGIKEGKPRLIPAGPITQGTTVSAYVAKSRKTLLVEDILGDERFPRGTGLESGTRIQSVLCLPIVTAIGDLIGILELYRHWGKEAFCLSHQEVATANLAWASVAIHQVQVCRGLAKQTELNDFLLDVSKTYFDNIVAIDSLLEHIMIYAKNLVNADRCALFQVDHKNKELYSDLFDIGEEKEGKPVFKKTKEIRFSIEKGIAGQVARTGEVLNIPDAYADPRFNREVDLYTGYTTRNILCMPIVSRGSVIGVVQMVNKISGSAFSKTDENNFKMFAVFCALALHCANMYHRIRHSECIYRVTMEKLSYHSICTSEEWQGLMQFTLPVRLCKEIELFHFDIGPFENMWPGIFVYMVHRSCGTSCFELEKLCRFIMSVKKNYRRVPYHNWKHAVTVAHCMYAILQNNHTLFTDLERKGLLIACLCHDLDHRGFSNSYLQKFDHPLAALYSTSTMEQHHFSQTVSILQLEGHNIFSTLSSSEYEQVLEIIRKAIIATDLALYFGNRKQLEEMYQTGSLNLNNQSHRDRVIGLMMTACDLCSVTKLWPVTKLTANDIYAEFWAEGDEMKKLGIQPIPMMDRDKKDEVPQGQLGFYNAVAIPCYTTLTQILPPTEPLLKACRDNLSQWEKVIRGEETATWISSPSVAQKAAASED

Structure (SMILES)	IC50 (PDE2A (NM002599))	IC50 (PDE10A1 (AB 020593))	melting point
CCCc1nc(C)c2nnc3ccc(OC)nc3n12 [Example 1, 8-methoxy-3-methyl-1-propyl-imidazo[5,1-c]-pyrido[2,3-e][1,2,4]triazine]	88.8 nM	102 nM	163 to 165 °C
CCc1nc(C)c2nnc3ccc(OC)nc3n12 [Example 2, 1-ethyl-8-methoxy-3-methyl-imidazo[5,1-c]pyrido[2,3-e][1,2,4]triazine]	399 nM	297 nM	202 to 203 °C
CCc1ncc2nnc3ccc(OC)nc3n12 [Example 3, 1-ethyl-8-methoxy-imidazo[5,1-c]pyrido[2,3-e][1,2,4]triazine]	> 1000 nM	4460 nM	167 to 168 °C
COc1ccc2nnc3c(C)nc(-c4ccccc4)n3c2n1 [Example 4, 8-methoxy-3-methyl-1-phenyl-imidazo[5,1-c]-pyrido[2,3-e][1,2,4]triazine]	89.3 nM	131 nM	214 to 217 °C
COc1ccc2nnc3c(C)ncn3c2n1 [Example 5, 8-methoxy-3-methyl-imidazo[5,1-c]-pyrido[2,3-e][1,2,4]triazine]	> 10000 nM	> 1000 nM	213 to 214 °C
COc1ccc2nnc3cnc(C(C)C)n3c2n1 [Example 7, 1-isopropyl-8-methoxy-imidazo[5,1-c]-pyrido[2,3-e][1,2,4]triazine]	2980 nM	2890 nM	159 to 162 °C
COc1ccc2nnc3cnc(-c4ccccc4Cl)n3c2n1 [Example 8, 1-(2-chlorophenyl)-8-methoxy-imidazo[5,1-c]pyrido[2,3-e][1,2,4]triazine]	96.5 nM	454 nM	190 to 193 °C
COc1ccc2nnc3c(C)nc(-c4ccccn4)n3c2n1 [Example 10, 8-methoxy-3-methyl-1-(2-pyridyl)-imidazo[5,1-c]-pyrido[2,3-e][1,2,4]triazine]	2200 nM	3810 nM	216 to 220 °C
COc1ccc2nnc3c(C)nc(C4CCCCC4)n3c2n1 [Example 11, 8-methoxy-3-methyl-1-(cyclohexyl)-imidazo[5,1-c]-pyrido[2,3-e][1,2,4]triazine]	56.3 nM	41.4 nM	174 to 177 °C
COc1ccc2nnc3c(C)nc(-c4ccc(Cl)c(Cl)c4)n3c2n1 [Example 92, 9-(3,4-dichlorophenyl)-2-methoxy-7-methylimidazo[5,1-c]pyrido[2,3-e][1,2,4]triazine]	660 nM	231 nM	
COc1ccc2nnc3c(C)nc(-c4cccc(Cl)c4)n3c2n1 [Example 93, 9-(3-chlorophenyl)-2-methoxy-7-methylimidazo[5,1-c]pyrido[2,3-e][1,2,4]triazine]	45.8 nM	46.8 nM	
COc1ccc2nnc3c(C)nc(-c4cccc(Cl)c4C)n3c2n1 [Example 94, 9-(3-chloro-2-methylphenyl)-2-methoxy-7-methylimidazo[5,1-c]pyrido[2,3-e][1,2,4]triazine]	89.5 nM	69.2 nM	
COc1ccc2nnc3c(C)nc(-c4ccc(OC)c(Cl)c4)n3c2n1 [Example 95, 9-(3-chloro-4-methoxyphenyl)-2-methoxy-7-methylimidazo[5,1-c]pyrido[2,3-e][1,2,4]triazine]	772 nM	> 500 nM	
COc1ccc2nnc3c(C)nc(-c4ccc(F)c(Cl)c4)n3c2n1 [Example 96, 9-(3-chloro-4-fluorophenyl)-2-methoxy-7-methylimidazo[5,1-c]pyrido[2,3-e][1,2,4]triazine]	73.7 nM	216 nM	
COc1ccc2nnc3c(C)nc(-c4cc(Cl)cc(Cl)c4)n3c2n1 [Example 97, 9-(3,5-dichlorophenyl)-2-methoxy-7-methylimidazo[5,1-c]pyrido[2,3-e][1,2,4]triazine]	460 nM	329 nM	
COc1ccc2nnc3c(C)nc(-c4cc(Cl)ccc4OC)n3c2n1 [Example 98, 9-(5-chloro-2-methoxyphenyl)-2-methoxy-7-methylimidazo[5,1-c]pyrido[2,3-e][1,2,4]triazine]	62.9 nM	86.9 nM	
COc1ccc2nnc3c(C)nc(-c4cc(Cl)ccc4C(F)(F)F)n3c2n1 [Example 99, 9-[5-chloro-2-(trifluoromethyl)phenyl]-2-methoxy-7-methylimidazo[5,1-c]pyrido[2,3-e][1,2,4]triazine]	79.6 nM	732 nM	
COc1ccc(C)c(-c2nc(C)c3nnc4ccc(OC)nc4n23)c1 [Example 100, 2-methoxy-9-(5-methoxy-2-methylphenyl)-7-methylimidazo[5,1-c]pyrido[2,3-e][1,2,4]triazine]	5.52 nM	55.6 nM	
COc1ccc2nnc3c(C)nc(-c4ccccc4C)n3c2n1 [Example 101, 2-methoxy-7-methyl-9-o-tolylimidazo[5,1-c]pyrido[2,3-e][1,2,4]triazine]	15.8 nM	46.1 nM	
COc1ccc2nnc3c(C)nc(-c4ccccc4C(F)(F)F)n3c2n1 [Example 102, 9-[2-(trifluoromethyl)phenyl]-2-methoxy-7-methylimidazo[5,1-c]pyrido[2,3-e][1,2,4]triazine]	48.6 nM	96.8 nM	
COc1ccc2nnc3c(C)nc(-c4ccccc4C(N)=O)n3c2n1 [Example 103, 2-(2-methoxy-7-methylimidazo[5,1-c]pyrido[2,3-e][1,2,4]triazin-9-yl)benzamide]	806 nM	1410 nM	
COc1ccc2nnc3c(C)nc(-c4ccccc4Oc4ccccc4)n3c2n1 [Example 105, 8-Methoxy-3-methyl-1-(2-phenoxy-phenyl)-imidazo[5,1-c]pyrido[2,3-e][1,2,4]triazine]	61.7 nM	817 nM	
COc1ccnc2c1nnc1c(C)nc(-c3cc(Cl)ccc3Cl)n12 [Example 113, 9-(2,5-dichlorophenyl)-4-methoxy-7-methylimidazo[5,1-c]pyrido[2,3-e][1,2,4]triazine]	171 nM	3.01 nM	
COc1ccnc2c1nnc1c(C)nc(-c3ccncc3C)n12 [Example 114, 4-methoxy-7-methyl-9-(3-methylpyridin-4-yl)imidazo[5,1-c]pyrido[2,3-e][1,2,4]triazine]	2060 nM	10.1 nM	
COc1ccnc2c1nnc1c(C)nc(-c3cnccc3C)n12 [Example 115, 4-methoxy-7-methyl-9-(4-methylpyridin-3-yl)imidazo[5,1-c]pyrido[2,3-e][1,2,4]triazine]	1950 nM	42.4 nM	
COc1ccnc2c1nnc1c(C)nc(-c3cccnc3C)n12 [Example 116, 4-methoxy-7-methyl-9-(2-methylpyridin-3-yl)imidazo[5,1-c]pyrido[2,3-e][1,2,4]triazine]	1150 nM	15.1 nM	
Cc1nc(-c2ccccc2Cl)n2c1nnc1ccc(O)nc12 [Example 117, 1-(2-Chloro-phenyl)-8-hydroxy-3-methyl-imidazo[5,1-c]pyrido[2,3-e][1,2,4]triazine]	3.25 nM	27.7 nM	
Cc1nc(-c2cc(Cl)ccc2Cl)n2c1nnc1ccc(N3CCCC3)nc12 [Example 120, 1-(2,5-Dichloro-phenyl)-3-methyl-8-pyrrolidin-1-yl-imidazo[5,1-c]pyrido[2,3-e][1,2,4]triazine]	3.24 nM	48 nM	
